Consider 13 molecules from US10220024B2, “Method of inhibiting cancer cell, method for detecting cancer cell, and system for detecting cancer cell” (CANON KABUSHIKI KAISHA, priority 2012, dated 2019).

Series [1] is described as follows: Measurement of fluorescent property of compound (spectrofluorometer). The format is physicochemical. The note with it: 5 μM DMSO solution. The procedure:
The excitation wavelength and fluorescence wavelength of the compound were measured by a FL4500 spectrofluorometric measuring machine manufactured by Hitachi High-Technologies Corporation.

In series [2] the test system is Human pancreas cancer cells, KLM-1. As to the kind of experiment: Cancer cell inhibitory (growth suppressive) action against pancreatic cancer cells, CellTiter-Glo viable cell count. In kind it is cell-based. The settings on record: KLM1, KLM-1, 10 μg/mL, 24 hours. On the procedure: (§1) Observation on cancer cell inhibitory (growth suppressive) action against pancreatic cancer cells Human pancreas cancer cells, KLM-1, were pre-cultured in RPMI1640 medium containing 10% FBS at 37° C. in a 5% CO2 ambient. Thereafter, 4,000 cells were seeded per well of a 96-well plate and further cultured for 24 hours. Subsequently, Compound (1) was added to the medium so as to obtain a final concentration of 10 μg/mL and cultured at 37° C. for 24 hours in a 5% CO2 ambient. The cultured cells were analyzed for viable cell count according to CellTiter-Glo Luminescent Cell Viability Assay (manufactured by Promega KK.). As a reference, the number of cells cultured in a medium containing a 0.1% dimethylsulfoxide solution (hereinafter, simply referred to as DMSO) in place of a medium containing Compound (1), in the aforementioned operation, was regarded (100%).
Viable cell count was analyzed in the same manner as in Experimental Example 1 except that Compound (1) of Experimental Example 1 was changed to compounds shown in Table 2.
Viable cell count was analyzed in the same manner as in Experimental Example 1 except that Compound (1) was changed to comparative compounds 1 to 4.
Viable cell counts of Experimental Examples 1 to 7 and Comparative Examples 1 to 4 were analyzed to obtain growth rates.
Evaluation of cancer cell inhibition against the pancreatic cancer cells (KLM-1) (growth suppression) was made based on the following criteria. Note that the growth rate in Examples herein is a numerical value of the number of cells obtained after culture relative to the number of cells (regarded as 100) grown in a medium containing 0.1% DMSO. Evaluation of cancer cell inhibition against the pancreatic cancer cells (KLM-1) was made as follows. • A: Cancer cell growth rate is less than 20% (cancer cell inhibitory (growth suppressive) effect is extremely high) • B: Cancer cell growth rate is 20% or more and less than 50% (cancer cell inhibitory (growth suppressive) effect is high) • C: Cancer cell growth rate is 50% or more (cancer cell inhibitory (growth suppressive) effect is low)
For orientation: ATP-based viability assays read luminescence as a measure of living cells.

For series [3], the system named is K562 ALDH (−) fraction (general cancer cells). As to the kind of experiment: Cancer stem-cell selective inhibitory action against chronic myelocytic leukemia cells, ALDH (−) fraction, CellTiter-Glo. The format is cell-based, Human. The settings on record: Homo sapiens, 24 hours, relative to 0.1% DMSO, read-out: ALDH(−) (growth rate); for activity at 10 µg/mL: 10 μg/ml; for activity at 1 µg/mL: 1 μg/mL. On the procedure: (§2) Human chronic myelocytic leukemia cells, K562, were pre-cultured in RPMI1640 medium containing 10% FBS at 37° C. in a 5% CO2 ambient. Then, a fraction containing 80% or more of cancer stem cells was extracted by use of ALDEFLUOR reagent (manufactured by VERITAS Corporation) and FACSAria flow cytometry (manufactured by Nippon Becton, Dickinson and Company). Subsequently, Compound (5) was added to the medium so as to obtain a final concentration of 10 μg/mL and cultured at 37° C. for 24 hours in a 5% CO2 ambient. The cultured cells were analyzed for viable cell count according to CellTiter-Glo Luminescent Cell Viability Assay (manufactured by Promega KK.). As a reference, the number of cells cultured in a medium containing a 0.1% dimethylsulfoxide solution (hereinafter, simply referred to as DMSO) in place of a medium containing Compound (1), in the aforementioned operation, was used as 0.1. Note that hereinafter, an ALDEFLUOR reagent positive fraction (deemed as cancer stem cells) is represented by ALDH (+), whereas an ALDEFLUOR reagent negative fraction (not deemed as cancer stem cells) is represented by ALDH (−), in some cases.
(§3) The same operation as in Experimental Example 12 was repeated except that Compound (5) in Experimental Example 12 was changed to the compounds shown in Table 4 and final concentrations shown in Table 4 were used and viable cell counts were separately analyzed. Note that the growth rate in Examples herein is a numerical value of the number of cells obtained after culture relative to the number of cells (regarded as 0.1) grown in a medium containing 0.1% DMSO.
(§4) The same operation as in Experimental Example 12 was repeated except that Compound (5) in Experimental Example 12 was changed to Imatinib (manufactured by NOVARTIS), which is a general anticancer drug, and comparative compounds shown in Table 4 and final concentrations shown in Table 4 were used and viable cell counts were separately analyzed.
(§5) The growth suppressive effect of cancer stem cells was evaluated based on the following criteria. Note that the growth rate in Examples herein is a numerical value relative to the number of cells (regarded as 0.1) grown in a medium containing 0.1% DMSO. • A: The value of ALDH (+) is less than 0.5 (growth suppressive effect against cancer stem cells is extremely high) • B: The value of ALDH (+) is 0.5 or more and less than 0.95 (growth suppressive effect against cancer stem cells is high) • C: The value of ALDH (+) is 0.95 or more (no growth suppressive effect against cancer stem cells)
(§6) Furthermore, superiority of cancer stem cells was evaluated by comparing cancer stem cells to cancer cells based on the following criteria. ALDH (+) represents cancer stem cells; whereas ALDH (−) represents general cancer cells. • A: The value of ALDH (+)/ALDH (−) is less than 0.8 (selective inhibitory effect against cancer stem cells is extremely high) • B: The value of ALDH (+)/ALDH (−) is 0.8 or more and less than 0.95 (selective inhibitory effect against cancer stem cells is high) • C: The value of ALDH (+)/ALDH (−) is 0.95 or more (no selective inhibitory effect against cancer stem cells)

For series [4], the system named is K562 ALDH (+) fraction (cancer stem cells). As to the kind of experiment: Cancer stem-cell selective inhibitory action against chronic myelocytic leukemia cells, ALDH (+) fraction, CellTiter-Glo. The note with it: Homo sapiens, 24 hours; for activity at 10 µg/mL: 10 μg/ml; for activity at 1 µg/mL: 1 μg/mL. In kind it is cell-based. On the procedure: as §2, §3, §4, §5, §6

Series [5] relates to Prostatic cancer cells, PC-3. Nature of the series: Cancer cell inhibitory (growth suppressive) action against prostatic cancer cells, CellTiter-Glo viable cell count. The format is cell-based. The settings on record: PC-3, 10 μg/mL, 24 hours. On the procedure:
as §1, with “Prostatic” for “Observation on cancer cell inhibitory (growth suppressive) action against pancreatic cancer cells Human pancreas”, “PC-3,” for “KLM-1,”, “(11)” for “(1)”, “(11),” for “(1),”, “used as 100.” for “regarded (100%).”
Viable cell count was analyzed in the same manner as in Experimental Example 8 except that the compounds shown in Table 3 were used in place of Compound (11) of Experimental Example 8.
Viable cell count was analyzed in the same manner as in Experimental Example 8 except that comparative compounds 1 to 4 were used in place of Compound (11) of Experimental Example 8.
The growth rate in Examples herein is a numerical value of the number of cells obtained after culture relative to the number of cells (regarded as 100) grown in a medium containing 0.1% DMSO.
Evaluation of cancer cell inhibition against the prostatic cancer cells (PC-3) was made as follows. • A: Cancer cell growth rate is less than 20% (cancer cell inhibitory (growth suppressive) effect is extremely high) • B: Cancer cell growth rate is 20% or more and less than 50% (cancer cell inhibitory (growth suppressive) effect is high) • C: Cancer cell growth rate is 50% or more (cancer cell inhibitory (growth suppressive) effect is low)

Setting [6] is: read-out: Evaluation (cancer cell growth rate).
Setting [7] is: relative to 0.1% DMSO (100), read-out: Cancer cell growth rate (%).
[8] abbreviates: read-out: Growth suppression evaluated.
The mark [9] stands for this setting: relative to 0.1% DMSO, read-out: ALDH(+) (growth rate).

Like-named read-outs stand apart in the source and are kept apart here. Bounds are passed on as bounds.

Regarding `CCN1c2ccc(/C=C/C3=[N+](CC)c4ccc(OC)cc4C34CCCCC4)cc2C2CCCC21` (stereo not drawn) [Compound 8], the Excitation wavelength λex in series [1] is 586 nm. The same molecule gave a Fluorescence wavelength λem in series [1] of 623 nm. The activity at 10 µg/mL was 20 to 50% in series [2] (setting [6]); 24.3% in series [2] (setting [7]); 32% in series [3]; less than 50% in series [4] (setting [8]); 23% in series [4] (setting [9]).
In series [1], `CC1(C)C(/C=C/c2ccc3c(c2)C2CCCC2N3c2ccc(C=C(c3ccccc3)c3ccccc3)cc2)=[N+](CCC(=O)O)c2ccccc21` (stereo not drawn) [Compound 31] showed an Excitation wavelength λex of 611 nm and a Fluorescence wavelength λem of 720 nm.
Regarding `COc1ccc(N2c3ccc(/C=C/C4=[N+](CCC(=O)O)c5ccccc5C4(C)C)cc3C3CCCC32)cc1` (stereo not drawn) [Compound 32], the Excitation wavelength λex in series [1] was found to be 592 nm. In addition, the Fluorescence wavelength λem in series [1] worked out at 671 nm. For the same molecule, the activity at 10 µg/mL in series [3] was 90%; in series [4] (setting [8]), 50 to 95%; in series [4] (setting [9]), 78%.
Molecule `COc1ccc(N2c3ccc(/C=C/c4sc5ccccc5[n+]4CC(=O)O)cc3C3CCCC32)cc1` (stereo not drawn) [Compound 33] gave an Excitation wavelength λex in series [1] of 560 nm. The same molecule showed a Fluorescence wavelength λem in series [1] of 677 nm. Also, the activity at 10 µg/mL in series [3] is 101%; in series [4] (setting [8]), 50 to 95%; in series [4] (setting [9]) it was 90%.
On to `CCN1c2ccc(/C=C/C3=[N+](C)c4ccccc4C3(C)C)cc2C2CCCC21` (stereo not drawn) [Compound 34], for which, in series [1], the Excitation wavelength λex amounted to 575 nm. In addition, the Fluorescence wavelength λem in series [1] was found to be 611 nm. Also, the activity at 10 µg/mL in series [3] was 24%; in series [4] (setting [8]), less than 50%; in series [4] (setting [9]), 17%.
For the molecule `CCn1c2ccccc2c2cc(/C=C/C3=[N+](C)c4ccccc4C3(C)C)ccc21` [Compound 36], the Excitation wavelength λex in series [1] is 488 nm. The same molecule gave a Fluorescence wavelength λem in series [1] of 594 nm. Further, the activity at 10 µg/mL in series [3] is 20%; in series [4] (setting [8]) it was less than 50%; in series [4] (setting [9]), 13%.
The molecule `COc1ccc(N2c3ccc(/C=C/C4=[N+](C)c5ccccc5C4(C)C)cc3C3CCCC32)cc1` (stereo not drawn) [Compound 38] had an Excitation wavelength λex in series [1] of 573 nm. Further, the Fluorescence wavelength λem in series [1] was 670 nm. For the same molecule, the activity at 10 µg/mL is 11% in series [3], less than 50% in series [4] (setting [8]) and 5% in series [4] (setting [9]).
`CCN1c2ccc(/C=C/C3=[N+](C)c4ccc5ccccc5c4C3(C)C)cc2C2CCCC21` (stereo not drawn) [Compound 39]: the Excitation wavelength λex in series [1] turned out to be 591 nm. Moreover, the Fluorescence wavelength λem in series [1] was found to be 626 nm. In addition, the activity at 10 µg/mL in series [3] was 13%; in series [4] (setting [8]), less than 50%; in series [4] (setting [9]) it was 6%.
With `CCn1c2ccccc2c2cc(/C=C/C3=[N+](C)c4ccc5ccccc5c4C3(C)C)ccc21` [Compound 40], the activity at 1 µg/mL in series [3] was 85%; in series [4] (setting [8]), 50 to 95%; in series [4] (setting [9]) it was 73%. The values for the activity at 10 µg/mL in series [3], in series [4] (setting [8]) and in series [4] (setting [9]) were 13%, less than 50% and 6%, respectively.
In the case of `CCN1C(=O)/C(=c2\s/c(=C/c3ccc4c(c3)c3ccccc3n4CC)c(=O)n2CC(=O)O)SC1=S` [compound 1, reference compound], the activity at 10 µg/mL in series [5] (setting [6]) is no less than 50%; in series [5] (setting [7]) it was 104%; in series [2] (setting [6]) it was no less than 50%; in series [2] (setting [7]), 99%.
Turning to `CCOC(=O)Cn1c(=O)/c(=C\c2ccc3c(c2)C2CCCC2N3c2ccccc2)s/c1=C1/SC(=S)N(CC)C1=O` (stereo not drawn) [compound 2, reference compound], the activity at 10 µg/mL in series [5] (setting [6]) is no less than 50%; in series [5] (setting [7]), 88.8%; in series [2] (setting [6]) it was no less than 50%; in series [2] (setting [7]) it was 91%.
Regarding `COc1ccc(N2c3ccc(/C=C4/SC(=S)N(CCC(=O)O)C4=O)cc3C3CCCC32)cc1` (stereo not drawn) [compound 3, reference compound], the activity at 10 µg/mL in series [5] (setting [6]) is no less than 50%; in series [5] (setting [7]), 86.5%; in series [2] (setting [6]) it was no less than 50%; in series [2] (setting [7]), 95%.
Take `O=C(O)Cn1c(=O)/c(=C\c2ccc3c(c2)C2CCCC2N3c2ccccc2)s/c1=C1/SC(=S)N(Cc2ccccc2)C1=O` (stereo not drawn) [compound 5, reference compound]: the activity at 1 µg/mL in series [3] is 97%; in series [4] (setting [8]), no less than 95%; in series [4] (setting [9]), 106%. For the same molecule, the activity at 10 µg/mL in series [3] was 90%; in series [4] (setting [8]), no less than 95%; in series [4] (setting [9]) it was 107%.
